Assay results taken from PMC10779950, “Binding Free Energy Calculation Based on the Fragment Molecular Orbital Method and Its Application in Designing Novel SHP-2 Allosteric Inhibitors” (International Journal of Molecular Sciences, 2024).
Where two headings read alike, the source gives them in different places. One block for each compound: values may come before it.

What was measured:
SHP2^WT (1–593) = target: T1, SHP2^WT (1–593) (Homo sapiens, UniProt Q06124); assay: SHP-2 prompt fluorescence phosphatase assay (DiFMUP), SHP2^WT; assay type: biochemical; parameters: ΔG experiment: unit not given here; conditions: for ΔGexp: converted from IC50 with ΔGexp ≈ kBTlog IC50; for pIC50: from experimental IC50; for ΔG experiment: experimental binding free energy converted from IC50
T1 construct: made in house; host or cells: E. coli BL21 Star (DE3), pET30 vector
T1 sequence (Q06124 1-593): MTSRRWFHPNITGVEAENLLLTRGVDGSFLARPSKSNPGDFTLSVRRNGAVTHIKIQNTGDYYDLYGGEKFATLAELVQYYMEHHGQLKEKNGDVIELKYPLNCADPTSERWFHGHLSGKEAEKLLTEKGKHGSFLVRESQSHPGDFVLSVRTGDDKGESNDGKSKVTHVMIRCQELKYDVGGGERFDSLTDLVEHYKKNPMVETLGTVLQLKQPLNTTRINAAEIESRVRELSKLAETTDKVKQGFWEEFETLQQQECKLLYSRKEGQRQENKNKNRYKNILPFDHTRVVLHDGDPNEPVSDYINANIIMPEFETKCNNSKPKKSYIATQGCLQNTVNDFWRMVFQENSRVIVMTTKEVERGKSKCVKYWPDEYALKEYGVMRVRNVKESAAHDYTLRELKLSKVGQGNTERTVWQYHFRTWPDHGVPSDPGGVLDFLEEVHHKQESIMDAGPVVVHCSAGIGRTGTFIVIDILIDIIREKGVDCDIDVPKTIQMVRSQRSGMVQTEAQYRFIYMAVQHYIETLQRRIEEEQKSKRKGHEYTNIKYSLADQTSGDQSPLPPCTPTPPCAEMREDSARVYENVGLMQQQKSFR
Method: Briefly, the constructs were transformed into BL21 Star^TM (DE3) cells and cultured at 37 °C for 3~4 h. Subsequently, the cells with high expression of SHP2 protein were harvested after being induced by IPTG and grown overnight at 18 °C. Cell pellets were resuspended in lysis buffer (25 mM imidazole, 50 mM Tris−HCl, 500 mM NaCl, 2.5 mM MgCl2, 1 mM tris(2-carboxyethyl)phosphine (TCEP), 1 μg/mL DNase1, and complete EDTA-free protease inhibitor) and lysed using Low Temperature Ultrahigh Pressure Continuous Flow Cell Disrupter (JNBIO), followed by ultracentrifugation. The supernatant was collected. Then, the SHP2 was purified from the collected supernatant by using HisTrap HP chelation column, TEV protease, and HiTrap Q FastFlow column.
Then, the mixture was then incubated at 25 °C for 60 min. To initiate the reaction, the surrogate substrate DiFMUP (Invitrogen, cat. no. D6567, Shuzhou, China, 200 μM) was added and incubated at 25 °C for another 30 min. […] Fluorescence signal was detected using a microplate reader (Bio-Tek, Shanghai, China, Synergy2) at Ex/Em = 340/450 nm. Using control-based normalization, normalized IC50 regression curves were fitted to inhibitor dose response curves.

THR-β = assay: Experimental THR-β activity of agonists taken from Hu et al.; assay type: biochemical; conditions: Table S4, converted from the experimental value
Excerpt: In the initial phase of our investigation, we conducted a retrospective evaluation of FMOScore’s performance concerning thyroid hormone receptor β (THR-β) agonists, using a set of 18 compounds taken from the work of Hu et al. [65]

c-Met [1] = system: c-Met; parameters: method as in earlier work; conditions: Schrödinger FEP+ benchmark; cited from earlier work
c-Met [2] = system: c-Met; parameters: method as in earlier work; conditions: FEP+ predicted ΔG from the benchmark; cited from earlier work
SYK [3] = conditions: experimental binding free energy, ref Schrödinger FEP+ benchmark; cited from earlier work
SYK [4] = system: SYK; parameters: method as in Schrödinger FEP+ benchmark; conditions: FEP+ predicted binding free energy, ref Schrödinger FEP+ benchmark; cited from earlier work
Eg5 = conditions: experimental binding free energy, ref Schrödinger FEP+ benchmark; cited from earlier work
[5] = SHP2^WT, DiFMUP substrate, averages of three independent experiments, read-out: SHP-2 IC50
[6] = SHP-2_case sheet, designed SHP-2 inhibitors, read-out: IC50uM
[7] = SHP-2_case sheet, same IC50 restated in another unit, read-out: IC50nM

IC50 (SHP2^WT (1–593); [5]): 10.7 ± 0.92 µM
ΔGexp (SHP2^WT (1–593)): -6.780 kcal/mol
Structure (SMILES): CC1(N)CCN(c2cnc(-c3ccnc(Cl)c3Cl)c(N)c2)CC1 [Compound 6, 5-(4-amino-4-methylpiperidin-1-yl)-2′,3′-dichloro-[2,4′-bipyridin]-3-amine]
ΔGexp (THR-β): -10.257 kcal/mol
Exp. ΔG (c-Met [1]): -12.28 kcal/mol
FEP (c-Met [2]): -12.22 kcal/mol
Exp. ΔG (SYK [3]): -11.69 kcal/mol
FEP (SYK [4]): -9.59 kcal/mol

Structure (SMILES): Cc1ccc(C(=O)N(CCN)C[C@H]2CC[C@@H]3[C@H](O2)c2cc(C(F)(F)F)ccc2N[C@H]3c2ccccc2)cc1 [CHEMBL1084431]
Exp. ΔG (Eg5): -9.8 kcal/mol

Structure (SMILES): CN(C)CCS(=O)(=O)NC[C@H]1CC[C@@H]2[C@H](O1)c1cc(Cl)cc(F)c1N[C@H]2c1ccccc1 [CHEMBL1096003]
Exp. ΔG (Eg5): -11.87 kcal/mol

IC50 (SHP2^WT (1–593); [6]): 10.7 µM
pIC50 (SHP2^WT (1–593); SHP-2_case sheet): 4.973
IC50 (SHP2^WT (1–593); [7]): 10.7 µM
ΔG experiment (SHP2^WT (1–593)): -6.78
Structure (SMILES): CC1(N)CCN(c2cnc(-c3ccnc(Cl)c3Cl)c(N)c2)CC1 [A-S6]

IC50 (SHP2^WT (1–593); [5]): 15.6 ± 1.49 µM
ΔGexp (SHP2^WT (1–593)): -6.553 kcal/mol
fold reduced inhibition on morphing the piperazine ring (relative to compound 1) (SHP2^WT (1–593); ratio of IC50): 10 fold
Structure (SMILES): Nc1cc(NCC2CCCNC2)cnc1-c1cccc(Cl)c1Cl (centres unmarked) [Compound 2, 2-(2,3-dichlorophenyl)-N5-(piperidin-3-ylmethyl) pyridine-3,5-diamine]
ΔGexp (THR-β): -6.110 kcal/mol
Exp. ΔG (c-Met [1]): -11.25 kcal/mol
FEP (c-Met [2]): -11.93 kcal/mol
Exp. ΔG (SYK [3]): -11.01 kcal/mol
FEP (SYK [4]): -10.49 kcal/mol

IC50 (SHP2^WT (1–593); [6]): 5.17 µM
pIC50 (SHP2^WT (1–593); SHP-2_case sheet): 5.286
IC50 (SHP2^WT (1–593); [7]): 5.17 µM
ΔG experiment (SHP2^WT (1–593)): -7.208
Structure (SMILES): Nc1cc(NC2CCNC2)cnc1-c1cccc(Cl)c1Cl (centres unmarked) [A-S3]

Structure (SMILES): FC(F)(F)c1ccc2c(c1)[C@H]1O[C@@H](Cn3cncn3)CC[C@H]1[C@H](c1ccccc1)N2 [CHEMBL1093088]
Exp. ΔG (Eg5): -11.22 kcal/mol

Structure (SMILES): CCN(CCO)C[C@H]1CC[C@@H]2[C@H](O1)c1cc(C(C)(C)C)ccc1N[C@H]2c1ccccc1 [CHEMBL1084935]
Exp. ΔG (Eg5): -10.53 kcal/mol

Structure (SMILES): CC(C)c1ccc2c(c1)[C@H]1O[C@@H](CNS(=O)(=O)CCCN(C)C)CC[C@H]1[C@H](c1ccccc1)N2 [CHEMBL1084143]
Exp. ΔG (Eg5): -11.87 kcal/mol

Structure (SMILES): CNC[C@H]1CC[C@@H]2[C@H](O1)c1cc(C3CC3)ccc1N[C@H]2c1ccccc1 [CHEMBL1083836]
Exp. ΔG (Eg5): -10.86 kcal/mol

IC50 (SHP2^WT (1–593); [6]): 15.1 µM
pIC50 (SHP2^WT (1–593); SHP-2_case sheet): 4.821
IC50 (SHP2^WT (1–593); [7]): 15.1 µM
ΔG experiment (SHP2^WT (1–593)): -6.573
Structure (SMILES): CC1(N)CCN(c2cnc(-c3cccc(F)c3Cl)c(N)c2)CC1 [A-S5]

Structure (SMILES): CNC[C@H]1CC[C@@H]2[C@H](O1)c1cc(C(C)(C)C)ccc1N[C@H]2c1cccs1 [CHEMBL1077227]
Exp. ΔG (Eg5): -11.32 kcal/mol

Structure (SMILES): Clc1ccc2c(c1)[C@H]1OCCC[C@H]1[C@H](c1ccccc1)N2 [CHEMBL1089393]
Exp. ΔG (Eg5): -8.38 kcal/mol

Structure (SMILES): CC(C)(C)c1ccc2c(c1)[C@H]1OCCC[C@H]1[C@H](c1ccsc1)N2 [CHEMBL1084115]
Exp. ΔG (Eg5): -9.44 kcal/mol

Structure (SMILES): Cc1ccc2c(c1)[C@H]1OCCC[C@H]1[C@H](c1ccccc1)N2 [CHEMBL1088740]
Exp. ΔG (Eg5): -8.7 kcal/mol

Structure (SMILES): CNC[C@H]1CC[C@@H]2[C@H](O1)c1cc(C(C)(C)C)ccc1N[C@H]2c1ccccc1 [CHEMBL1086410]
Exp. ΔG (Eg5): -11.46 kcal/mol

Structure (SMILES): CN(C)CCNC(=O)NC[C@H]1CC[C@@H]2[C@H](O1)c1cc(C(F)(F)F)ccc1N[C@H]2c1ccccc1 [CHEMBL1077204]
Exp. ΔG (Eg5): -11.05 kcal/mol

Structure (SMILES): OCCNC[C@H]1CC[C@@H]2[C@H](O1)c1cc(Cl)cc(F)c1N[C@H]2c1ccccc1 [CHEMBL1096002]
Exp. ΔG (Eg5): -11.13 kcal/mol

Structure (SMILES): CNC[C@H]1CC[C@@H]2[C@H](O1)c1cc(C(F)(F)F)ccc1N[C@H]2c1ccc(O)cc1 [CHEMBL1083517]
Exp. ΔG (Eg5): -11.46 kcal/mol
